Results reported in US20260184707A1, “PHARMACEUTICAL COMPOUNDS FOR THE TREATMENT OF COMPLEMENT MEDIATED DISORDERS” (ALEXION PHARMACEUTICALS, INC., priority 2022, published 2026).

Target: T1, Human complement C1s enzyme (Homo sapiens, UniProt P09871)
T1 construct: purified from human serum, Complement Technology, Inc; purchased Complement Technology, Inc; host or cells: human serum (plasma-derived native protein)
T1 sequence (P09871 438-688 limits assumed): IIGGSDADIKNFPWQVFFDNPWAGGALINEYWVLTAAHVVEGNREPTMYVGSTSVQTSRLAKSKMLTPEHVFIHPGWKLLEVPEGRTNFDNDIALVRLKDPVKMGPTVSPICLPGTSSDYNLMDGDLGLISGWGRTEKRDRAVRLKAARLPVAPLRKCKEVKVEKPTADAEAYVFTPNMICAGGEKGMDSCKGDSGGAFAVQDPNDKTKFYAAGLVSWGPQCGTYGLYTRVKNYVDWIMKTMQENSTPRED
T1 sequence (P09871 16-437 partner limits assumed): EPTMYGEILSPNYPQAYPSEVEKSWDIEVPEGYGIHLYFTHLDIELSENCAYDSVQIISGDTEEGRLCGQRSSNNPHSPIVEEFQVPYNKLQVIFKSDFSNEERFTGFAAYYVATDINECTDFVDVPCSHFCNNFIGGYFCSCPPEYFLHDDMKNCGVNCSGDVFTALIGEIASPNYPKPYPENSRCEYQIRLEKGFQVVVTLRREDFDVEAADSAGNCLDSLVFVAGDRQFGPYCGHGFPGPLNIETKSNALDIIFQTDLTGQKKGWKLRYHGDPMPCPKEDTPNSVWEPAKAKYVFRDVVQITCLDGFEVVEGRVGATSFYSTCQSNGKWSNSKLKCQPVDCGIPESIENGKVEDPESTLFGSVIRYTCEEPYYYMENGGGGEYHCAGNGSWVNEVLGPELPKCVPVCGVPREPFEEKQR
Experiment: Human C1s enzyme assay
Format: biochemical
Conditions: human complement C1s enzyme 1.16 nM, substrate Z-L-Lys-SBzl, A405; read-out: IC50 (Stars)
Method in brief: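 Serum-purified human C1s (1.16 nM final) preincubated 5 min at room temperature with compound in 50 mM Tris, 1 M NaCl, pH 7.5. Z-L-Lys-SBzl and DTNB added at 100 μM each; A405 recorded every 30 s. IC50 from nonlinear regression of reaction rates versus compound concentration.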

Row | SMILES | IC50 [nM]
1 | O=C(Cn1c(-c2ccccc2)ncc(NCCCc2ccccc2)c1=O)NCc1cc2cnccc2[nH]1 [Compound 1, N-((1H-pyrrolo[3,2-c]pyridin-2-yl)methyl)-2-(6-oxo-2-phen-yl-5-((3-phenylpropyl)amino)-pyrimidin-1(6H)-yl)acetamide] | < 100
2 | O=C(Cn1c(-c2ccccc2)ncc(NC(=O)CCCc2ccc(Oc3ccccc3)cc2)c1=O)NCc1cc2cnccc2[nH]1 [Compound 18, N-(1-(2-(((1H-pyrrolo[3,2-c]pyridin-2-yl)methyl)amino)-2-oxoethyl)-6-oxo-2-phenyl-1,6-dihydropyrimidin-5-yl)-4-(4-phenoxyphenyl)butanamide] | < 100
3 | Cc1ncc(NCc2ccc3oc4ccccc4c3c2)c(=O)n1CC(=O)NCc1cc2cnccc2[nH]1 [Compound 247, N-((1H-pyrrolo[3,2-c]pyridin-2-yl)methyl)-2-(5-((dibenzo [b,d]furan-2-ylmethyl)amino)-2-methyl-6-oxopyrimidin-1(6H)-yl)acetamide] | < 100
4 | N#Cc1ccc(CCCNc2cnc(-c3ccccc3)n(CC(=O)NCc3cc4cnccc4[nH]3)c2=O)cc1 [Compound 48, N-((1H-pyrrolo[3,2-c]pyridin-2-yl)methyl)-2-(5-((3-(4-cyanophenyl)propyl)amino)-6-oxo-2-phenylpyrimidin-1(6H)-yl)acetamide] | < 100
5 | O=C(Cn1c(-c2ccccc2)ncc(NCc2ccc(-c3ccccc3)s2)c1=O)NCc1cc2cnccc2[nH]1 [Compound 258, N-((1H-pyrrolo[3,2-c]pyridine-2-yl)methyl)-2-(6-oxo-2-phenyl-5-(((5-phenylthiophen-2-yl)methyl)amino)pyrimidin-1(6H)-yl)acetamide] | < 100
6 | COc1c(NC(=O)c2ccc(-c3ccccc3)s2)ccc(-c2ccccc2)c1CC(=O)NCc1cc2cnccc2[nH]1 [Compound 129, N-(2-(2-(((1H-Pyrrolo[3,2-c]pyridine-2-yl)methyl)amino)-2-oxoethyl)-3-methoxy-[1,1′-biphenyl]-4-yl)-5-phenylthiophene-2-carboxamide] | > 1000
7 | O=C(Cn1c(-c2ccc(OC3COC3)cc2)ncc(NCc2ccc3c(c2)-c2ccccc2C3(F)F)c1=O)NCc1cc2cnccc2[nH]1 [Compound 138, N-((1H-pyrrolo[3,2-c]pyridin-2-yl)methyl)-2-(5-(((9,9-difluoro-9H-fluoren-3-yl)meth-yl)amino)-2-(4-(oxetan-3-yl-oxy)phenyl)-6-oxopyrimidin-1(6H)-yl)acetamide] | < 100
8 | CS(=N)(=O)c1ccc(CCCNc2cnc(-c3ccccc3)n(CC(=O)NCc3cc4cnccc4[nH]3)c2=O)cc1 (stereo not drawn) [Compound 105, N-((1H-pyrrolo[3,2-c]pyridine-2-yl)methyl)-2-(5-((3-(4-(S-methylsulfonimidoyl)phenyl)propyl)amino)-6-oxo-2-phenylpyrimidin-1(6H)-yl) acetamide] | < 100
9 | C[C@H](Nc1cnc(-c2ccccn2)n(CC(=O)NCc2cc3cnccc3[nH]2)c1=O)c1ccc2oc3ccccc3c2c1 [Compound 285, (S)—N-((1H-pyrrolo[3,2-c]pyridine-2-yl)methyl)-2-(5-((1-(dibenzo[b,d]furan-2-yl)ethyl)amino)-6-oxo-2-(pyridine-2-yl)pyrimidin-1(6H)-yl)acetamide] | < 100
10 | O=C(Cn1c(-c2ccccc2)ncc(NC(=O)c2cc(-c3ccccc3)cs2)c1=O)NCc1cc2cnccc2[nH]1 [Compound 210, N-(1-(2-(((1H-pyrrolo[3,2-c]pyridin-2-yl)methyl)amino)-2-oxoethyl)-6-oxo-2-phenyl-1,6-dihydropyrimidin-5-yl)-4-phen-ylthiophene-2-carboxamide] | < 100
11 | O=C(Cn1c(-c2ccccc2)ncc(NC(=O)c2ccc(Oc3ccccc3)nc2)c1=O)NCc1cc2cnccc2[nH]1 [Compound 74, N-(1-(2-(((1H-pyrrolo[3,2-c]pyridin-2-yl)methyl)amino)-2-oxoethyl)-6-oxo-2-phenyl-1,6-dihydropyrimidin-5-yl)-6-phenoxynicotinamide] | < 100
12 | O=C(Cn1c(-c2ccccc2)ncc(NC(=O)c2cnc(-c3ccccc3)o2)c1=O)NCc1cc2cnccc2[nH]1 [Compound 107, N-(1-(2-(((1H-pyrrolo[3,2-c]pyridin-2-yl)methyl)amino)-2-oxoethyl)-6-oxo-2-phenyl-1,6-dihydropyrimidin-5-yl)-2-phenyloxazole-5-carboxamide] | < 100
13 | COc1cccc(-c2ccc(C(=O)Nc3cnc(-c4ccccc4)n(CC(=O)NCc4cc5cnccc5[nH]4)c3=O)cc2F)c1 [Compound 217, N-(1-(2-(((1H-pyrrolo[3,2-c]pyridine-2-yl)methyl)amino)-2-oxoethyl)-6-oxo-2-phenyl-1,6-dihydropyrimidin-5-yl)-2-fluoro-3′-methoxy-[1,1′-biphenyl]-4-carboxamide] | < 100
14 | O=C(Cn1c(-c2ccccc2)ncc(NC(=O)c2ncc(-c3ccccc3)s2)c1=O)NCc1cc2cnccc2[nH]1 [Compound 170, N-(1-(2-(((1H-pyrrolo[3,2-c]pyridin-2-yl)methyl)amino)-2-oxoethyl)-6-oxo-2-phenyl-1,6-dihydropyrimidin-5-yl)-5-phen-ylthiazole-2-carboxamide] | < 100
15 | O=C(Cn1c(-c2ccccc2)cnc(NCc2ccc3oc4ccccc4c3c2)c1=O)NCc1cc2cnccc2[nH]1 [Compound 176, N-((1H-pyrrolo[3,2-c]pyridin-2-yl)methyl)-2-(3-((dibenzo [b,d]furan-2-ylmethyl)amino)-2-oxo-6-phenylpyrazin-1(2H)-yl)acetamide] | < 100

Continued, values first:

Row | IC50 [nM] | SMILES
16 | > 1000 | C[C@@H](Nc1cnc(N2CC3CC3C2)n(CC(=O)NCc2cc3cnccc3[nH]2)c1=O)c1ccc2oc3ccccc3c2c1 (stereo partly drawn) [Compound 371, N-((1H-pyrrolo[3,2-c]pyridin-2-yl)methyl)-2-(2-(3-azabicyclo [3.1.0]hexan-3-yl)-5-(((R)-1-(dibenzo[b,d]furan-2-yl)ethyl)-amino)-6-oxopyrimidin-1(6H)-yl)acetamide]
17 | < 100 | C[C@@H](Nc1ncc(-c2ccccn2)n(CC(=O)NCc2cc3cnccc3[nH]2)c1=O)c1ccc2oc3ccccc3c2c1 [Compound 430, (R)-N-((1H-pyrrolo[3,2-c]pyridin-2-yl)methyl)-2-(3-((1-(dibenzo[b,d]furan-2-yl)ethyl)-amino)-2-oxo-6-(pyridin-2-yl)-pyrazin-1(2H)-yl)acetamide]
18 | < 100 | Cc1cnc(CNc2cnc(-c3ccccc3)n(CC(=O)NCc3cc4cnccc4[nH]3)c2=O)o1 [Compound 455, N-((1H-pyrrolo[3,2-c]pyridin-2-yl)methyl)-2-(5-(((5-methyl-oxazol-2-yl)methyl)amino)-6-oxo-2-phenylpyrimidin-1(6H)-yl)acetamide]
19 | < 100 | O=C(Cn1c(N2CCn3c(nnc3C(F)(F)F)C2)ncc(NCCCc2ccccc2)c1=O)NCc1cc2cnccc2[nH]1 [Compound 301, N-((1H-pyrrolo[3,2-c]pyridin-2-yl)methyl)-2-(6-oxo-5-((3-phenylpropyl)amino)-2-(3-(trifluoromethyl)-5,6-dihydro-[1,2,4]triazolo[4,3-a]pyrazin-7(8H)-yl)pyrimidin-1(6H)-yl)-acetamide]
20 | < 100 | C[C@@H](Nc1cnc(-c2ccco2)n(CC(=O)NCc2cc3cnccc3[nH]2)c1=O)c1ccc2oc3ccccc3c2c1 [Compound 326, (R)-N-((1H-pyrrolo[3,2-c]pyridin-2-yl)methyl)-2-(5-((1-(dibenzo[b,d]furan-2-yl)ethyl)-amino)-2-(furan-2-yl)-6-oxo-pyrimidin-1(6H)-yl)acetamide]
21 | 100 to 1000 | C[C@@H](Nc1cnc(N2CCCCC2)n(CC(=O)NCc2cc3cnccc3[nH]2)c1=O)c1csc(-c2ccccc2)n1 [Compound 463, (R)-N-((1H-pyrrolo[3,2-c]pyridin-2-yl)methyl)-2-(6-oxo-5-((1-(2-phenylthiazol-4-yl)-ethyl)amino)-2-(piperidin-1-yl)-pyrimidin-1(6H)-yl)acetamide]
22 | < 100 | C[C@@H](Nc1cnc(-c2ccccc2F)n(CC(=O)NCc2cc3cnccc3[nH]2)c1=O)c1ccc2oc3c(F)cccc3c2c1 [Compound 318, (R)—N-((1H-Pyrrolo[3,2-c]pyridine-2-yl)methyl)-2-(5-((1-(6-fluorodibenzo[b,d]furan-2-yl)ethyl)amino)-2-(2-fluorophenyl)-6-oxopyrimidin-1(6H)-yl)acetamide]
23 | < 100 | C[C@@H](Nc1cnc(N2CCCCC2)n(CC(=O)NCc2cc3cnccc3[nH]2)c1=O)c1ccc2oc3ccccc3c2c1 [Compound 361, (R)-N-((1H-pyrrolo[3,2-c]pyridin-2-yl)methyl)-2-(5-((1-(dibenzo[b,d]furan-2-yl)ethyl)-amino)-6-oxo-2-(piperidin-1-yl)pyrimidin-1(6H)-yl)acet-amide]
24 | < 100 | Cc1ccc(-c2ncc(N[C@H](C)c3ccc4oc5ccccc5c4c3)c(=O)n2CC(=O)NCc2cc3cnccc3[nH]2)c(F)c1 [Compound 436, (R)-N-((1H-pyrrolo[3,2-c]pyridin-2-yl)methyl)-2-(5-((1-(dibenzo[b,d]furan-2-yl)ethyl)-amino)-2-(2-fluoro-4-methyl-phenyl)-6-oxopyrimidin-1(6H)-yl)acetamide]
